Tests used:
HBO-KAT7 = molecular target: T1, HBO-KAT7 (Homo sapiens, UniProt O95251); assay: Revised Acetyltransferase Biochemical Assay, KAT7; conditions: Table 9 (HBO-KAT7), 1 μM Acetyl coenzyme A
T1 construct: encoding amino acid residues 325 to 611 (Uniprot 095251-1) of human KAT7; made in house; host or cells: E. coli BL21 DE3 RIL

MOF-KAT8 [1] = molecular target: T2, MOF-KAT8 (Homo sapiens, UniProt Q9H7Z6); assay: Revised Acetyltransferase Biochemical Assay, KAT8
T2 sequence (Q9H7Z6 177-447): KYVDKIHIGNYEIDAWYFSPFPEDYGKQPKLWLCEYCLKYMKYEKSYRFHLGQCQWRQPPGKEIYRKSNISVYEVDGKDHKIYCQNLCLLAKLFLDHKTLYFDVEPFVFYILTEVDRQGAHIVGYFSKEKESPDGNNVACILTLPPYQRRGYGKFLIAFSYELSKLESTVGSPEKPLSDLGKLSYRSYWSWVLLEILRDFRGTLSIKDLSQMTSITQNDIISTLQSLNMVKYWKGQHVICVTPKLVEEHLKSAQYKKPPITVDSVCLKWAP

[2] = tested on: histone H3 Lysine 14 acetylation (HBO1 mediated) in U2OS cells; assay: Histone H3 Lysine 14 Acetylation Biomarker Assay (384-well, U2OS); format: cell-based; conditions: Homo sapiens, serum free medium, 24 hours incubation
Experimental: Compounds may be tested for their ability to inhibit acetylation of the histone H3 Lysine 14 (which is HBO1 mediated) marker in the following assay:
The cell line U2OS was seeded at a density of 3,000 cells per well in 384-well optical quality tissue culture plates in RPMI medium supplemented with 10% foetal bovine serum and 10 mM Hepes. The cells were allowed to adhere for 24 hours under standard culture conditions (37 degree Celsius, 5% CO2). At the end of this period the cells were washed with serum free medium. Compound dilutions prepared in DMSO were added to the serum free medium, with negative control wells reserved for treatment with DMSO only and 100% inhibition positive controls receiving a potent inhibitor compound (e.g. (Z)-4-fluoro-N-((3-hydroxyphenyl)sulfonyl)-5-methyl-[1,1′-biphenyl]-3-carbohydrazonic acid) at 10 μM concentration. After incubation for 24 hours, the cells were fixed with 4% formaldehyde in PBS for 15 minutes at room temperature, washed with phosphate buffer saline and blocked with blocking buffer containing 0.2% TritonX100 and 2% BSA. Anti-H3K14ac specific antibody (Cell Signalling Technologies) in blocking buffer was added and incubated overnight at 4 degree Celsius. After washing, a secondary antibody labelled with AlexaFluor 488 dye (ThermoFisher) and Hoechst 33342 (1 μg/mL, Life Technologies) were added for 2 hours incubation at room temperature. Plates were washed and read on a
PerkinElmer Opera HCS high content imaging platform. Using a Columbus image analysis pipeline, individual nuclei were located by Hoechst 33342 stain and the acetylation level was calculated from the AlexaFluor 488-related intensity in the same area. The resulting mean intensity per cell was converted to percent inhibition relative to controls on the same plate and the data fitted against a four-parameter logistic model to determine the 50% inhibitory concentration (IC50).

TIP60-KAT5 = molecular target: T3, TIP60-KAT5 (Homo sapiens, UniProt Q92993); assay: Revised Acetyltransferase Biochemical Assay, KAT5; conditions: 10 nM KAT5, 1 μM AcCoA, 100 nM histone H4, 90 min
T3 construct: encoding amino acid residues 2 to 461 (Uniprot Q92993-2) of human KAT5 isoform; made in house; host or cells: E. coli BL21 DE3

[3] = tested on: histone H2A.Z Lysine 7 acetylation (TIP60 mediated) in U2OS cells; assay: H2A.Z Lysine 7 Acetylation Biomarker Assay (384-well, U2OS); format: cell-based; conditions: Homo sapiens, serum free medium, 24 hours incubation
Experimental: Compounds may be tested for their ability to inhibit the histone H2A.Z Lysine 7 acetylation marker (which is TIP60 mediated) in the following assay:
The cell line U2OS was seeded at a density of 3,000 cells per well in 384-well optical quality tissue culture plates in RPMI medium supplemented with 10% foetal bovine serum and 10 mM Hepes. The cells were allowed to adhere for 24 hours under standard culture conditions (37 degree Celsius, 5% CO2). At the end of this period the cells were washed with serum free medium. […] After incubation for 24 hours, the cells were fixed with 4% formaldehyde in PBS for 15 minutes at room temperature, washed with phosphate buffer saline and blocked with blocking buffer containing 0.2% TritonX100 and 2% BSA. Anti-H2A.ZK7ac specific antibody (Abcam) in blocking buffer was added and incubated overnight at 4 degree Celsius. After washing, a secondary antibody labelled with AlexaFluor 488 dye (ThermoFisher) and Hoechst 33342 (1 μg/mL, Life Technologies) were added for 2 hours incubation at room temperature. Plates were washed and read on a PerkinElmer Opera HCS high content imaging platform. Using a Columbus image analysis pipeline, individual nuclei were located by Hoechst 33342 stain and the acetylation level was calculated from the AlexaFluor 488-related intensity in the same area. The resulting mean intensity per cell was converted to percent inhibition relative to controls on the same plate and the data fitted against a four-parameter logistic model to determine the 50% inhibitory concentration (IC50).

MOZ-KAT6A = molecular target: T4, MOZ-KAT6A (Homo sapiens, UniProt Q92794, A567V); assay: Revised Acetyltransferase Biochemical Assay, KAT6A; conditions: Table 8 (MOZ-KAT6A), 1 μM Acetyl coenzyme A
T4 construct: encoding amino acid residues 507 to 778 (Uniprot Q92794-1) of human KAT6A; made in house; host or cells: E. coli BL21 DE3

MOF-KAT8 [4] = molecular target: T2, MOF-KAT8; assay: Acetyltransferase biochemical assay (AlphaScreen), KAT8; conditions: Table 4 (MOF-KAT8); 0.4 μM Acetyl coenzyme A, histone H4, 20 nM enzyme

T4 sequence (Q92794 507-778 A567V limits assumed): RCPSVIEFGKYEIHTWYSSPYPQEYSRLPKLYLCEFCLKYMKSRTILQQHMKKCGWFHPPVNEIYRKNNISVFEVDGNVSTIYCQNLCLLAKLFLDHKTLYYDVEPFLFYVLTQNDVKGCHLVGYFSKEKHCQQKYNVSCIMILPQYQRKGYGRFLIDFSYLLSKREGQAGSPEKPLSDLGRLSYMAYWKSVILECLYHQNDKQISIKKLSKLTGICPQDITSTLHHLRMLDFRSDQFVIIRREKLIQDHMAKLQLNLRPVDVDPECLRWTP
T3 sequence (Q92993 2-461 isoform Q92993-2): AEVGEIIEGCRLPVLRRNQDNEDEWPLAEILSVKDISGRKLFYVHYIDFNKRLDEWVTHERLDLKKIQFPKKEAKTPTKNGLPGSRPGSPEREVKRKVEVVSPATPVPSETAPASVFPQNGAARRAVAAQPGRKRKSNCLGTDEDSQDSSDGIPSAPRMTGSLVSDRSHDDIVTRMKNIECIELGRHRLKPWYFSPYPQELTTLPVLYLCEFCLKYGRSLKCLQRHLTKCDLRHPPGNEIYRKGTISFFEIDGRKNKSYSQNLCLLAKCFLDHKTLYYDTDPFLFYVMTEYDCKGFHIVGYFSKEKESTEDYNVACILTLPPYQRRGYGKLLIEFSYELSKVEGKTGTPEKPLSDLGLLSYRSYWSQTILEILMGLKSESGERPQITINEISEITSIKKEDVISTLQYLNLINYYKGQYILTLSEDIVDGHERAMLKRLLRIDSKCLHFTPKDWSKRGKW
T1 sequence (O95251 with tags, fused parts or gaps): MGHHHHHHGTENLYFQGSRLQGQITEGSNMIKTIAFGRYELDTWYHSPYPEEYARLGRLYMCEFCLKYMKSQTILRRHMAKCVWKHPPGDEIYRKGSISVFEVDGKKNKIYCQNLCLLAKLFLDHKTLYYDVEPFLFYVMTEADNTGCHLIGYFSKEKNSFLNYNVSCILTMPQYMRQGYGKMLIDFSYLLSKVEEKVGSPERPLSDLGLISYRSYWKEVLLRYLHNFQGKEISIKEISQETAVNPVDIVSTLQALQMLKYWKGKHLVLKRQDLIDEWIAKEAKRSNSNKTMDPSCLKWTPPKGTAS

SMILES | IC50 (HBO-KAT7) | IC50 (MOF-KAT8 [1]) | IC50 [2] | IC50 (TIP60-KAT5) | IC50 [3] | IC50 (MOZ-KAT6A) | IC50 (MOF-KAT8 [4])
O=C(NCC(c1cccc(Cl)c1)c1ncco1)C1=Nc2ccc(Cl)cc2S(=O)(=O)N1 (stereo not shown) [Example 162] | 512 nM | 34500 nM | 6520 nM | 1540 nM | 10900 nM | 29 nM | 4200 nM
O=C(NCC(c1ccc(F)cc1)c1ncco1)C1=Nc2ccc(I)cc2S(=O)(=O)N1 (stereo not shown) [Example 164] | 242 nM | 34400 nM | 2080 nM | 781 nM | 2820 nM | 17 nM | 29600 nM
Cc1ccc(C(CNC(=O)C2=Nc3ccc(I)cc3S(=O)(=O)N2)c2ncco2)cc1 (stereo not shown) [Example 169] | 386 nM | 43700 nM | 1300 nM | 412 nM | 9880 nM | 23 nM | 5140 nM
COCc1nnc(C(CNC(=O)C2=Nc3ccc(I)cc3S(=O)(=O)N2)c2ccccc2)o1 (stereo not shown) [Example 171] | 785 nM | > 125000 nM | 10400 nM | 1160 nM | > 40000 nM | 24 nM | 41700 nM
COc1cccc(C(CNC(=O)C2=Nc3ccc(I)cc3S(=O)(=O)N2)c2ncco2)c1 (stereo not shown) [Example 187, 7-iodo-N-(2-(3-methoxyphenyl)-2-(oxazol-2-yl)ethyl)-2H-benzo[e][1,2,4]thiadiazine-3-carboxamide 1,1-dioxide] | 115 nM | 14100 nM | 491 nM | 242 nM | 5460 nM | 15 nM | 22800 nM
COc1cccc(C(CNC(=O)C2=Nc3ccc(Br)cc3S(=O)(=O)N2)c2ncco2)c1 (stereo not shown) [Example 188, 7-bromo-N-(2-(3-methoxyphenyl)-2-(oxazol-2-yl)ethyl)-2H-benzo[e][1,2,4]thiadiazine-3-carboxamide 1,1-dioxide] | 215 nM | 54300 nM | 427 nM | 1440 nM | – | 41 nM | 39800 nM
Nc1nnc(C(CNC(=O)C2=Nc3ccc(I)cc3S(=O)(=O)N2)c2ccccc2)o1 (stereo not shown) [Example 189] | 214 nM | 28700 nM | > 20000 nM | 2850 nM | > 40000 nM | 75 nM | 7960 nM
O=C(NCCc1ccccc1-n1ncc(CO)n1)C1=Nc2ccc(I)cc2S(=O)(=O)N1 [Example 190, N-(2-(4-(hydroxymethyl)-2H-1,2,3-triazol-2-yl)phenethyl)-7-iodo-2H-benzo[e][1,2,4]thiadiazine-3-carboxamide 1,1-dioxide] | 414 nM | 68400 nM | 4950 nM | 303 nM | 31100 nM | 8 nM | 48900 nM

From US20210380548A1, “Fused [1,2,4]Thiadiazine Derivatives Which Act as KAT Inhibitors of the MYST Family” (CTxT Pty Limited, priority 2017, published 2021)
